Data on one compound can be found in patent US12616713B2, “Methods for enhancing vascular density” (priority 2016, dated 2026).

The test system of one assay is SIRT1-iKO and WT mice. In words: Hindlimb ischemia model. Format: in vivo, mouse. To be noted: 8-month old mice, femoral ligation, NMN 20 days; SIRT1-dependent. How it is done: The effect of NMN in ischemia-induced vessel formation was assessed in a murine model of hindlimb ischemia using SIRT1-iKO and WT mice according to the published protocol (Limbourg et al., 2009, Nat Protoc 4, 1737-1746). Treatment of animals with NMN (500 mg/kg/day) via drinking water started one week prior to femoral ligation and was continued until the end of the experiment. The blood flow in the ischemic limb was measured using contrast-enhanced ultrasound imaging, 20 days after the surgery.
Mice were anesthetized with isoflurane (1.5-2%, 500 ml 02/min), hindlimbs were shaved using depilatory cream and a 27-gauge catheter was placed into each mouse's tail and kept in place with surgical tape. […] A cine loop was recorded at a frame rate of 20 frames/s for a total of 1,000 frames. […] The difference in maximum and minimum video intensity was determined as the peak enhancement and was the variable used to determine muscle perfusion.
Freshly isolated whole quadriceps and gastrocnemius muscle samples were mounted in OCT compound (Tissue-Tek), placed in an isopentane bath and slowly cooled in liquid nitrogen. […] Images were acquired using a confocal fluorescence microscope (Nikon A1). Quantification of capillaries and capillary density were performed using ImageJ software. […]

For a further assay, the system named is HUVECs. In words: Seahorse analysis of oxygen consumption rate. Format: cell-based, human. To be noted: NaHS 100 μM, NMN 500 μM. How it is done:
Oxygen consumption rates were measured in accordance with manufacturer instructions using Seahorse XF96 analyzer (Seahorse Bioscience). Briefly, 40,000 HUVECs were plated onto XF96 plates and incubated overnight at 37° C./5% CO2. Next day, the media was replaced with XF assay media (DMEM), supplemented with glucose (1 g/L), glutamate (2 mM) and pyruvate (1 mM) and the pH was adjusted to 7.4. NaHS (100 μM) and/or NMN (500 μM) were added at the start of the experiment. Oxygen consumption measurements were made approximately every 8 minutes under basal conditions, and after the addition of oligomycin (1 μM). Experiments were replicated in six wells and averaged for each experimental condition.

Assay [1] concerns C57BL/6J mice. In words: TUNEL and CD31 co-staining of quadriceps capillaries. The class given is in vivo, mouse. The conditions noted are these: aged quadriceps tissue, four weeks treatment; untreated 42%. How it is done: Freshly isolated whole quadriceps and gastrocnemius muscle samples were mounted in OCT compound (Tissue-Tek), placed in an isopentane bath and slowly cooled in liquid nitrogen. Transverse sections at 20 μm-thickness were sectioned on a cryostat (Leica). The sections were fixed in pre-cooled acetone (−20° C.) for 10 min and washed with PBS. Slides were then blocked in normal goat serum and 5% Blocking Reagent (PerkinElmer) in PBST (PBS with 0.1% Triton-X) for 1 h at room temperature, and then incubated with anti-CD31 (ab56299, Abcam) and anti-Laminin (L9393, Sigma), GFP (ab6556, Abcam) or SIRT1 (HPA006295, Sigma) antibodies diluted in blocking buffer overnight at 4° C. Slides were washed with PBST and then incubated with anti-rat Alexa Fluor 488-conjugated (Life Technologies) and anti-rabbit Alexa Fluor 594-conjugated (Life Technologies) antibodies diluted to 1:500 in blocking buffer for 2 h at room temperature. Slides were washed again with PBST and mounted with Fluoroshield with DAPI mounting medium (Sigma). Images were acquired using a confocal fluorescence microscope (Nikon A1). Quantification of capillaries and capillary density were performed using ImageJ software. TUNEL staining was performed in muscle sections using in situ BrdU-Red DNA fragmentation (TUNEL) assay kit (Abcam) as per manufacturer's protocol.

The test system of assay [2] is C57BL/6J mice. In words: Contrast-enhanced ultrasound of hindlimb muscle perfusion. The class given is in vivo, mouse. The conditions noted are these: 20-month old mice, NMN-treated versus vehicle. How it is done: Mice were anesthetized with isoflurane (1.5-2%, 500 ml 02/min), hindlimbs were shaved using depilatory cream and a 27-gauge catheter was placed into each mouse's tail and kept in place with surgical tape. Each mouse was placed in a supine position on a platform heated to 38° C. with each paw taped to a surface electrode to monitor ECG, heart rate, and respiratory rate. Contrast-enhanced ultrasound (CEU) (Vevo 2100, Visualsonics, Canada) was performed at an imaging frequency of 18 MHz. The probe was placed on the medial side of the leg to image the lower hindlimb in a sagittal plane. A bolus injection of microbubbles (Vevo MicroMarker, Canada) were injected through the tail vein catheter according to the manufacturer's instructions. A cine loop was recorded at a frame rate of 20 frames/s for a total of 1,000 frames. Curve fit analysis was used to measure echo power over time. The difference in maximum and minimum video intensity was determined as the peak enhancement and was the variable used to determine muscle perfusion.

A further assay relates to SIRT1. In words: SIRT1 protein levels in HUVECs (Western blot). The class given is cell-based, human. The conditions noted are these: NaHS 0.1 mM and/or NMN 0.5 mM. How it is done:
SDS-PAGE and Western blot analysis were performed according to standard procedures and detected with the ECL detection kit (Bio-rad, Australia). For Western blot analysis antibodies directed against SIRT1 (Sigma), SIRT3 (CST), SIRT6 (SantaCruz), eNOS (Cell Signaling Technology or CST), cleaved Notch1 (CST), total OXPHOS cocktail (Abcam), PGC-1α (Millipore), VEGF (Abcam), VEGFR2 (Abcam), phospho-VEGFR2 (Millipore), Actin (Cell Signaling Technology), Tubulin (Sigma), 14-3-3 (Cell Signaling Technology), GAPDH (SantaCruz) were used. Quantification of band intensities by densitometry was carried out using ImageJ software.
In general terms: A western blot detects proteins with antibodies after separation by electrophoresis.

The test system of assay [3] is C57BL/6J mice. In words: Metabolic chambers (CLAMS) oxygen consumption. Format: in vivo, mouse. How it is done:
Metabolic chambers (CLAMS™, Columbus Instruments, Columbus, OH) were used to perform whole-body measurements of metabolic function. Following acclimatization to the metabolic chambers, individually housed mice were monitored continuously over 48 h to determine oxygen consumption, carbon dioxide production, respiratory exchange ratio, energy expenditure, food intake, water intake and activity. Body composition (fat mass, lean mass, and total body water) was measured by EchoMRI (Echo MRI™ 900).

In the case of `NC(=O)c1ccc[n+]([C@@H]2O[C@H](COP(=O)([O-])O)[C@@H](O)[C@H]2O)c1` [NMN, nicotinamide mononucleotide], in the assay with SIRT1-iKO and WT mice, the “capillary density of ischemic gastrocnemius” value is on record as “restored” and the “relative blood volume (peak enhancement) of ischemic limb” value is listed as “restored”. In the assay on HUVECs, the “basal OCR” value is listed as “had no effect”. The “number of capillaries with apoptotic cells” value in the assay on C57BL/6J mice [1] stood at 17%. Moreover, the “resting muscle perfusion (peak enhancement)” value in the assay with C57BL/6J mice [2] is “increased resting muscle perfusion”. In addition, in the assay with SIRT1, the SIRT1 protein levels result was “increased SIRT1 protein levels”. For the same compound, the “oxygen consumption higher than non-treated control mice” value with C57BL/6J mice [3] (dark cycle) is recorded as 23%. For the same compound, the “oxygen consumption higher than non-treated control mice” value in the assay on C57BL/6J mice [3] (light cycle) turned out to be 30%.
